Results as given in patent US4855415A, “Glucosylmoranoline derivatives” (Nippon Shinyaku Co., Ltd., priority 1986, dated 1989).
Values after ≈ are worked out from the molar mass of the structure shown.

Assays:
[1] = tested on: increase in blood glucose level; experiment: inhibitory action against increase in blood glucose level in rats (oral sucrose load); format: in vivo, SD-Strain rats; settings: per os, 1 ml/100 g of sucrose solution (2 g/10 ml) containing 30 mg test compound, 180 minutes after administration
Description: INHIBITORY ACTION AGAINST INCREASE IN BLOOD GLUCOSE LEVEL IN RATS
SD-Strain rats (5 weeks age; male; each group comprising 4 to 5 rats) were fasted overnight and then given 1 ml/100 g body weight of aqueous solution of sucrose (2 g/10 ml) containing 30 mg test compound per os through a stomach tube.
Blood was taken from the tail vein immediately before the administration and at 30, 60, 90, 120 and 180 minutes thereafter and blood glucose levels were measured by a glucose oxidase method (using the assay kit prepared by Boehringer Mannheim).
Based on the values obtained above, a graph was drawn using time as the abscissa and blood glucose level as the ordinate and the area (ΔAUC)under the time-blood glucose increase curve was determined.
A group of rats receiving only water and another group receiving only sucrose were designated as a basal group (group B) and a control group (group C), respectively. Then the inhibitory rate for an increase in ΔAUC 180 minutes after administration of the test compounds (group T) was calculated from the following expression. [formula]

[2] = target: maltase; experiment: alpha-glucosidase inhibiting action in vitro: maltase; format: biochemical, rabbit; settings: 50 mM maltose, pH 7.0, 37° C., 30 minutes; for IC50, Maltase: crudely purified enzyme from rabbit small intestine mucosa, average of three measurements (* four); for inhibitory rate, Maltase: ** inhibitory rate at 100 μg/ml
Description: (§1) MEASUREMENT OF ALPHA-GLUCOSIDASE INHIBITING ACTION IN VITRO
(§2) The activity of the test compounds in inhibiting sucrase and maltase in vitro using a crudely purified enzyme preparation (purified in accordance with a method of Takesue, 1969) obtained from rabbit small intestine mocosa was carried out as follows.
(§3) To 40 microliters of enzyme solution diluted with 0.4M phosphate buffer (pH 7.0) are added 20 microliters of a solution of a test compound in the same buffer and 140 microliters of a solution of a substrate (50 mM sucrose or 50 mM maltose) in the same buffer and the mixture is allowed to react at 37° C. for 30 minutes. The reaction is then stopped by adding 400 microliters of 3N barium hydroxide and 400 microliters of 5% zinc sulfate solution. The amount of the enzyme that is reacted is determined as the amount of glucose contained in 200 microliters of the supernatant liquid of the reaction solution by adding 3 ml of glucoseoxidase reagent (Bioehringer-Mannheim) followed by reacting at ambient temperature for 30 minutes and measuring the absorbance at 420 nm. The concentration of the compound that provides 50% inhibition (IC50) of sucrase and maltase is calculated by expressing the values (as measured by the above method with five different concentrations) as an inhibitory rate (%) to the control.

[3] = target: T1, sucrase (Oryctolagus cuniculus, UniProt P07768); experiment: alpha-glucosidase inhibiting action in vitro: sucrase; format: biochemical, rabbit; settings: 50 mM sucrose, pH 7.0, 37° C., 30 minutes; for IC50: IC50, Sucrase, crudely purified enzyme from rabbit small intestine mucosa, average of three measurements (* four)
T1 construct: from tissue; host or cells: rabbit small intestine mucosa, crudely purified by a method of Takesue, 1969
Description: as §1, §2, §3

[4] = tested on: mice; experiment: oral toxicity in mice; format: in vivo; settings: orally, 5 g/kg
Description: The toxicity of the compounds (I) was tested by giving the compound of Example 1 orally to mice (5 g/kg) but there were no deaths.

T1 sequence (P07768 1008-1827 limits assumed): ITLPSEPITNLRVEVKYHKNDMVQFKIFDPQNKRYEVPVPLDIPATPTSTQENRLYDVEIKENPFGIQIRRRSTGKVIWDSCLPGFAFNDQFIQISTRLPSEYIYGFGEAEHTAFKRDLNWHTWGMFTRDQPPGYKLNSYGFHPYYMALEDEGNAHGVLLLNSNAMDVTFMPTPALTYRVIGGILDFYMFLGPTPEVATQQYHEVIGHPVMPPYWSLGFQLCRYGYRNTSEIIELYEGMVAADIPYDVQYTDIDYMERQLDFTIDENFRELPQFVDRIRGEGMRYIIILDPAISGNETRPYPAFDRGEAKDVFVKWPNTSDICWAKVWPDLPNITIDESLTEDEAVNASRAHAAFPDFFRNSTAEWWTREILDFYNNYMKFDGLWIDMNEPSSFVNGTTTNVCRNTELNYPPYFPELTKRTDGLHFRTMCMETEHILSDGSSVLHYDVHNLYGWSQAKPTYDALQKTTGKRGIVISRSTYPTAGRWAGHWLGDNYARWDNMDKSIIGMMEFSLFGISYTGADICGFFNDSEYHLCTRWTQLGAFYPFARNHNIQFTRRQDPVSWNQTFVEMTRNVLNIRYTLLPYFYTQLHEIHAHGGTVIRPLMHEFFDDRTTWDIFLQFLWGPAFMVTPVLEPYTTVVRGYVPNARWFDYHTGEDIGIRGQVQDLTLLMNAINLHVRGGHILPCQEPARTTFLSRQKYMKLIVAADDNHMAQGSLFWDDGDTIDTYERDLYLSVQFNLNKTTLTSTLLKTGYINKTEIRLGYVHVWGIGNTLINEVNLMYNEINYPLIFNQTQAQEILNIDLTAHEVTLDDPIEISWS
T1 sequence (P07768 2-1007 partner limits assumed): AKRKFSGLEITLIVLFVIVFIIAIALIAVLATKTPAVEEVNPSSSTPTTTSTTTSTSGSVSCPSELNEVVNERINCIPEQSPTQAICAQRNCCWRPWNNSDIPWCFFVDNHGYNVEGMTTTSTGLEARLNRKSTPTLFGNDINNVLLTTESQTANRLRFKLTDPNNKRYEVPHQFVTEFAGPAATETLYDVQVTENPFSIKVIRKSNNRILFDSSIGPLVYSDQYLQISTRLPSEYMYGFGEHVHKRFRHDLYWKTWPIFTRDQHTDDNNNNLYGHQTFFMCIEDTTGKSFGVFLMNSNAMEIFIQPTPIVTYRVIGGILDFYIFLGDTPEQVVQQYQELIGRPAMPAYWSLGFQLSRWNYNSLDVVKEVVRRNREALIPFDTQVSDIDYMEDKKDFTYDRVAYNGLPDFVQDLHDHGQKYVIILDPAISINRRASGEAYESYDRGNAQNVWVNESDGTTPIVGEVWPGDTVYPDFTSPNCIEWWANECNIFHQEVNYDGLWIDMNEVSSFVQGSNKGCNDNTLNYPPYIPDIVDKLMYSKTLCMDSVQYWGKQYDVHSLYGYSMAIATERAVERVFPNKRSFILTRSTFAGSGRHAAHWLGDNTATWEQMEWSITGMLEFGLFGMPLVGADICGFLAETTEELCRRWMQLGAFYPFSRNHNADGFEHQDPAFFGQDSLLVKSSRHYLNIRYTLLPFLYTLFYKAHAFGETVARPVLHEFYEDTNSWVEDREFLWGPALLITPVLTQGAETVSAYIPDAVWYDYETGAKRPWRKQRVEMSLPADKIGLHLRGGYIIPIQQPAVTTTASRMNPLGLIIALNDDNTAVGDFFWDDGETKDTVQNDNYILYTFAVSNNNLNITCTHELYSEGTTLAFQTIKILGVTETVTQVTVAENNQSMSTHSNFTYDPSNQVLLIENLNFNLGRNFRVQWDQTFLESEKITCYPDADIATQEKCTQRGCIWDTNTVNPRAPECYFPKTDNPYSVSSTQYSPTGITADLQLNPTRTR

| Compound | Inhibitory Rate (%) for increase in ΔAUC of blood glucose [1] | IC50, Maltase [2] | IC50 [3] | deaths [4] | inhibitory rate, Maltase [2] | inhibition at 100 µg/mL ([3]; ** inhibitory rate at 100 μg/ml) |
| --- | --- | --- | --- | --- | --- | --- |
| Cc1ccc(CN2C[C@H](O)[C@@H](O)[C@H](O[C@H]3O[C@H](CO)[C@@H](O)[C@H](O)[C@H]3O)[C@H]2CO)cc1 [Example 25, 4-O-alpha-D-Glucopyranosyl-N-(p-methylbenzyl)moranoline p-toluenesulfonate] | 84.4% | 69.2 µg/mL (≈ 161 µM) | 32.6 µM | – | – | – |
| OC[C@@H]1[C@@H](O[C@H]2O[C@H](CO)[C@@H](O)[C@H](O)[C@H]2O)[C@H](O)[C@@H](O)CN1CCc1ccccc1 [Example 6, 4-O-alpha-D-Glucopyranosyl-N-(beta-phenylethyl)moranoline] | 69.9% | 192.5 µg/mL (≈ 448 µM) | 71.7 µM | – | – | – |
| CC(C)=CCN1C[C@H](O)[C@@H](O)[C@H](O[C@H]2O[C@H](CO)[C@@H](O)[C@H](O)[C@H]2O)[C@H]1CO [Example 3, 4-O-alpha-D-Glucopyranosyl-N-(3-methylcrotyl)moranoline p-toluensulfonate] | 73.2% | 248.9 µg/mL (≈ 633 µM) | 43.7 µM | – | – | – |
| OC[C@@H]1[C@@H](O[C@H]2O[C@H](CO)[C@@H](O)[C@H](O)[C@H]2O)[C@H](O)[C@@H](O)CN1CC(O)COc1ccccc1 (stereo partly drawn) [Example 22, 4-O-alpha-D-Glucopyranosyl-N-(2-hydroxy-3-phenoxypropyl)moranoline p-toluenesulfonate hydrate] | 48.4% | 40.9 µg/mL | 33.9 µM | – | – | – |
| OC[C@@H]1[C@@H](O[C@H]2O[C@H](CO)[C@@H](O)[C@H](O)[C@H]2O)[C@H](O)[C@@H](O)CN1CCc1ccccc1 [Example 19, 4-O-alpha-D-Glucopyranosyl-N-phenethylmoranoline p-toluenesulfonate] | 54.0% | – | – | – | – | – |
| CCCCCCCCCN1C[C@H](O)[C@@H](O)[C@H](O[C@H]2O[C@H](CO)[C@@H](O)[C@H](O)[C@H]2O)[C@H]1CO [Example 17, 4-O-alpha-D-Glucopyranosyl-N-nonylmoranoline hydrate] | 80.2% | 77.9 µg/mL | 11.5 µM | – | – | – |
| C=CCN1C[C@H](O)[C@@H](O)[C@H](O[C@H]2O[C@H](CO)[C@@H](O)[C@H](O)[C@H]2O)[C@H]1CO [Example 13, 4-O-alpha-D-Glucopyranosyl-N-allylmoranoline p-toluenesulfonate] | 77.1% | 262.1 µg/mL (≈ 717 µM) | 62.7 µM | – | – | – |
| COC(=O)CCCCN1C[C@H](O)[C@@H](O)[C@H](O[C@H]2O[C@H](CO)[C@@H](O)[C@H](O)[C@H]2O)[C@H]1CO [Example 18, 4-O-alpha-D-Glucopyranosyl-N-(4-methoxycarbonylbutyl)moranoline p-toluenesulfonate] | 47.9% | 44.6 µg/mL (≈ 101 µM) | 45.1 µM | – | – | – |
| CCCCCCN1C[C@H](O)[C@@H](O)[C@H](O[C@H]2O[C@H](CO)[C@@H](O)[C@H](O)[C@H]2O)[C@H]1CO [Example 5, 4-O-alpha-D-Glucopyranosyl-N-hexylmoranoline p-toluenesulfonate] | 94.8% | – | – | – | – | – |
| OC[C@@H]1[C@@H](O[C@H]2O[C@H](CO)[C@@H](O)[C@H](O)[C@H]2O)[C@H](O)[C@@H](O)CN1CCCCOc1ccccc1 [Example 14, 4-O-alpha-D-Glucopyranosyl-N-(4-phenoxybutyl)-moranoline] | 86.9% | 168.6 µg/mL (≈ 356 µM) | 14.4 µM | – | – | – |
| OC[C@@H]1[C@@H](O[C@H]2O[C@H](CO)[C@@H](O)[C@H](O)[C@H]2O)[C@H](O)[C@@H](O)CN1CC=Cc1ccccc1 [Example 20, 4-O-alpha-D-Glucopyranosyl-N-cinnamylmoranoline p-toluenesulfonate] | 76.8% | 284.9 µg/mL (≈ 645 µM) | 22 µM | – | – | – |
| Cc1ccc(CN2C[C@H](O)[C@@H](O)[C@H](O[C@H]3O[C@H](CO)[C@@H](O)[C@H](O)[C@H]3O)[C@H]2CO)cc1 [Example 1, 4-O-alpha-D-Glucopyranosyl-N-(p-methylbenzyl)-moranoline] | 68.6% | – | 36.1 µM | no deaths | 23.5% | – |
| O=C(O)c1ccc(CN2C[C@H](O)[C@@H](O)[C@H](O[C@H]3O[C@H](CO)[C@@H](O)[C@H](O)[C@H]3O)[C@H]2CO)cc1 [Example 12, 4-O-alpha-D-Glucopyranosyl-N-(4-carboxybenzyl)moranoline p-toluenesulfonate] | 46.6% | – | – | – | 2.0% | 21.9% |
| OC[C@@H]1[C@@H](O[C@H]2O[C@H](CO)[C@@H](O)[C@H](O)[C@H]2O)[C@H](O)[C@@H](O)CN1CCOc1ccccc1 [Example 9, 4-O-alpha-D-Glucopyranosyl-N-(beta-phenoxyethyl)moranoline] | 64.5% | 223.6 µg/mL (≈ 502 µM) | 14.4 µM | – | – | – |
| COc1ccc(CN2C[C@H](O)[C@@H](O)[C@H](O[C@H]3O[C@H](CO)[C@@H](O)[C@H](O)[C@H]3O)[C@H]2CO)cc1 [Example 8, 4-O-alpha-D-Glucopyranosyl-N-(p-methoxybenzyl)moranoline] | 54.8% | 173.0 µg/mL (≈ 388 µM) | 55.7 µM | – | – | – |
| OC[C@@H]1[C@@H](O[C@H]2O[C@H](CO)[C@@H](O)[C@H](O)[C@H]2O)[C@H](O)[C@@H](O)CN1Cc1ccc(Br)cc1 [Example 4, 4-O-alpha-D-Glucopyranosyl-N-(p-bromobenzyl)moranoline] | – | 34.2 µg/mL (≈ 69.2 µM) | 20.2 µM | – | – | – |
